Test results published in patent US20250152719A1, “FUSED IMIDE DERIVATIVE” (Chia Tai Tianqing Pharmaceutical Group Co., Ltd., priority 2021, published 2025).
pIC50: −log10 of the molar value. Where two headings read alike, the source gives them in different places.

Experiments:
OCI-LY10 cells = assay: Inhibitory activity on OCI-LY10 cell proliferation (CCK-8); type: cell-based
Experimental: (§1) OCI-LY10 cells in a good growth state were collected and added to a centrifuge tube, adjusted to a cell density of 1×10^5 cells/mL, and seeded in a 96-well plate (100 μL/well). The cells were incubated overnight in a cell incubator. Compounds were added using a nanoliter pipettor such that the final concentrations of the compounds were 5000 nM-0.31 nM; the addition was performed in duplicate, and meanwhile, a control was set. After another 72 h of incubation in the cell incubator, 10 μL of CCK-8 (CK04, PP799) was added. After 2.5 h of incubation in the cell incubator, absorbance values were detected at 450 nm using an Envision microplate reader, the four-parameter analysis was performed, the dose-response curves were fit, and IC50 was calculated.

BTK = BTK (Homo sapiens (Human), UniProt Q06187); assay: BTK degradation in OCI-LY10 cells (Total-BTK HTRF kit); type: cell-based; conditions: 24 (or 6) h incubation; for DC50: DC50 = concentration when degradation rate reaches 50%, read-out: OCI-LY10 cell BTK degradation DC50; for Dmax / BTK degradation in OCI-LY10 cells Dmax: maximum degradation rate
Experimental: The detection was carried out using the Total-BTK Kits (cisbio, 63ADK064PEH), and 4× Supplemented Lysis buffer was prepared using the Blocking reagent stock solution (100×) and Lysis buffer stock solution (4×). Premixed antibody solutions were prepared using the Detection buffer, Total-BTK d2 antibody, and Total-BTK Eu Cryptate antibody.
OCI-LY10 cells in a good growth state were collected and added to a centrifuge tube, adjusted to a cell density of 4.17×10^6 cells/mL, and seeded in a 384-well plate (12 μL/well). The cells were incubated overnight in a cell incubator. Compounds were added using a nanoliter pipettor such that the final concentrations of the compounds were 100 nM-0.098 nM; the addition was performed in duplicate, and meanwhile, a control was set. After another 24 (or 6) h of incubation in the cell incubator, the 4× Supplemented Lysis buffer was added at 4 μL/well to lyse the cells. After the cells were shaken for 40 min at room temperature, the Premixed antibody solutions were added at 4 μL/well, and the cells were left to stand overnight at room temperature. Fluorescence values of the cells were detected at 665 nm/620 nm using an Envision microplate reader, the four-parameter analysis was performed, the dose-response curves were fit, and DC50 (the concentration of the drug when the degradation rate reaches 50%) and Dmax (the maximum degradation rate) were calculated.

Mouse pharmacokinetics = type: in vivo, ICR mice; conditions: for clearance / half-life / AUC / Cmax: ICR, mouse, plasma; for AUC: read-out: AUC; for Cmax: read-out: Cmax
Experimental: ICR mice weighing 18-22 g were randomized into groups of 9 after 3-5 days of acclimatization and then intragastrically given the test compound solution at a dose of 10 mg/kg. Plasma samples to be tested were prepared by taking blood from the orbit at time points of 15 min, 30 min, 1 h, 2 h, 3 h, 4 h, 6 h, 8 h, 10 h, and 24 h. 20 μL of each plasma sample to be detected and a standard curve sample were taken, and an acetonitrile solution containing an internal standard was added. […] Pharmacokinetic parameters were fitted using a non-compartmental model (see Table 5).

TMD8-BTK(C481S) cells = assay: Inhibitory activity on TMD8-BTK(C481S) cell proliferation (CCK-8); type: cell-based; conditions: 72 h incubation
Experimental: as §1, with “TMD8-BTK(C481S)” for “OCI-LY10”, “8×10^4” for “1×10^5”, “4” for “2.5”

[1] = test system: OCI-LY10-BTK(C481S) cells; assay: Inhibitory activity on OCI-LY10-BTK(C481S) cell proliferation (CCK-8); type: cell-based; conditions: 72 h incubation, IC50 per method, unit inferred
Experimental: OCI-LY10(C481S) cells in the logarithmic growth phase were collected and added to a centrifuge tube, adjusted to a cell density of 5×10^4 cells/mL, and seeded in a 96-well plate (100 μL/well). Meanwhile, compounds were added using a nanoliter pipettor such that the final concentrations of the compounds were 5000 nM-0.31 nM; the addition was performed in duplicate, and meanwhile, a control was set. After another 72 h of incubation in the cell incubator, the detection reagent CCK-8 (manufacturer: Dojindo Laboratories, Beijing; 10 μL/well) was added. After 3 h of incubation in the cell incubator, absorbance values were detected at 450 nm using a PerkinElmer Envision microplate reader, the four-parameter analysis was performed, the dose-response curves were fit, and IC50 was calculated.

[2] = Homo sapiens, OCI-Ly10, 72 h incubation
[3] = po, 10 mg/kg, Mouse i.g. 10 mpk

BTK, sequence (Q06187 whole entry): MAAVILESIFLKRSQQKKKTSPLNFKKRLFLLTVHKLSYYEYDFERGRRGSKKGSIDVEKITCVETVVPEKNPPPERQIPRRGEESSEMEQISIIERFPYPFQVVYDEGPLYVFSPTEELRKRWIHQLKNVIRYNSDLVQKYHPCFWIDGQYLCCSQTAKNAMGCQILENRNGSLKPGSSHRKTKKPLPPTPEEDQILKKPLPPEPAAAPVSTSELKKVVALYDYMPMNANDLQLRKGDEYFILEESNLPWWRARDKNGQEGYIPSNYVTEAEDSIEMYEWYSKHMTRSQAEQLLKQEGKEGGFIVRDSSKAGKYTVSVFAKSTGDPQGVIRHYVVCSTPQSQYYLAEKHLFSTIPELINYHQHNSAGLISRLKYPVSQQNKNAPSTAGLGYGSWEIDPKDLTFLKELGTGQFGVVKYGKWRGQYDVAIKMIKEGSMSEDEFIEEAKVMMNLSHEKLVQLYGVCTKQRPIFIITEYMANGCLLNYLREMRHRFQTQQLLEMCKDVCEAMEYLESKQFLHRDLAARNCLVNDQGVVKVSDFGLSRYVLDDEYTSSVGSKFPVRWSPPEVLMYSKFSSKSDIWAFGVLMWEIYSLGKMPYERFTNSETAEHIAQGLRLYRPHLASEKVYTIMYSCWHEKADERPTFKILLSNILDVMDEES

| Structure (SMILES) | pIC50 (OCI-LY10 cells; [2]) | Dmax (BTK; OCI-Ly10, OCI-LY10 cells) [%] | pIC50 ([1]; 72 h) | further results |
| --- | --- | --- | --- | --- |
| CN1CCN([C@@H]2CCCN(c3cnc(C(N)=O)c(Nc4ccc(C5CCN(CC6CN(c7ccc8c(C9CCC(=O)NC9=O)noc8c7)C6)CC5)cc4)n3)C2)C1=O (stereo partly shown) [Compound 9] | > 9.51 | 99 | – | DC50 (BTK; OCI-LY10 cells): < 98 pM; clearance (Mouse pharmacokinetics; iv, 1 mg/kg, Mouse i.v. 1 mpk): 5.52 mL/min/kg; half-life (Mouse pharmacokinetics; iv, 1 mg/kg, Mouse i.v. 1 mpk): 1.5 h; AUC (Mouse pharmacokinetics; iv, 1 mg/kg, Mouse i.v. 1 mpk): 2970 ng·h/mL; half-life (Mouse pharmacokinetics; [3]): 2.6 h; AUC (Mouse pharmacokinetics; [3]): 13700 ng·h/mL; Cmax (Mouse pharmacokinetics; [3]): 1390 ng/mL; F (Mouse pharmacokinetics; Mouse i.g. 10 mpk): 46.10%; pIC50 (TMD8-BTK(C481S) cells; 72 h): 8.92 |
| CN1CCN([C@@H]2CCCN(c3cnc(C(N)=O)c(Nc4ccc(C5CCN(C[C@@H]6CCC(n7ccc8c9c(C%10CCC(=O)NC%10=O)noc9ccc87)C6)CC5)cc4)n3)C2)C1=O (stereo partly shown) [Compound 15] | – | – | – | pIC50 (OCI-LY10 cells; 72 h incubation): > 9.51; DC50 (BTK; OCI-LY10 cells): < 98 pM; BTK degradation in OCI-LY10 cells Dmax (BTK; OCI-LY10 cells): 100%; pIC50 [1]: > 9.51 |
| CN1CCN([C@@H]2CCCN(c3cnc(C(N)=O)c(Nc4ccc(N5CCC(CN6Cc7ccc8c(C9CCC(=O)NC9=O)noc8c7C6)CC5)cc4)n3)C2)C1=O (stereo partly shown) [Compound 24] | > 9.51 | > 90 | 9.30 | – |
| CN1CCN([C@@H]2CCCN(c3cnc(C(N)=O)c(Nc4ccc(N5CCC(CN6CCc7ccc8c(C9CCC(=O)NC9=O)noc8c7C6)CC5)cc4)n3)C2)C1=O (stereo partly shown) [Compound 26] | > 9.51 | > 90 | 9.59 | – |
| CN1CCN([C@@H]2CCCN(c3cnc(C(N)=O)c(Nc4ccc(N5CCC(CN6CCc7c(ccc8c(C9CCC(=O)NC9=O)noc78)C6)CC5)cc4)n3)C2)C1=O (stereo partly shown) [Compound 28] | > 9.51 | > 90 | 9.54 | – |
| CN1CCN([C@@H]2CCCN(c3cnc(C(N)=O)c(Nc4ccc(N5CCC(CN6Cc7cc8onc(C9CCC(=O)NC9=O)c8cc7C6)CC5)cc4)n3)C2)C1=O (stereo partly shown) [Compound 29] | > 9.51 | > 90 | 9.46 | – |
| CN1CCN([C@@H]2CCCN(c3cnc(C(N)=O)c(Nc4ccc(N5CCC(N6Cc7ccc8c(C9CCC(=O)NC9=O)noc8c7C6)CC5)cc4)n3)C2)C1=O (stereo partly shown) [Compound 30] | > 9.51 | – | – | Dmax (BTK; OCI-LY10 cells): > 90%; pIC50 [1]: 9.36 |
| CN1CCN([C@@H]2CCCN(c3cnc(C(N)=O)c(Nc4ccc(N5CCC(N6CCc7ccc8c(C9CCC(=O)NC9=O)noc8c7C6)CC5)cc4)n3)C2)C1=O (stereo partly shown) [Compound 34] | > 9.51 | 97 | 9.72 | DC50 (BTK; OCI-LY10 cells): < 98 pM |
| CN1CCN([C@@H]2CCCN(c3cnc(C(N)=O)c(Nc4ccc(N5CCC(N6CCc7c(ccc8c(C9CCC(=O)NC9=O)noc78)C6)CC5)cc4)n3)C2)C1=O (stereo partly shown) [Compound 35] | > 9.51 | > 90 | 9.92 | – |
| CN1CCN([C@@H]2CCCN(c3cnc(C(N)=O)c(Nc4ccc(N5CCC(N6CCc7ccc8c(C9CCC(=O)NC9=O)noc8c7CC6)CC5)cc4)n3)C2)C1=O (stereo partly shown) [Compound 36] | > 9.51 | 95 | 10.62 | DC50 (BTK; OCI-LY10 cells): < 98 pM |
| CN1CCN([C@@H]2CCCN(c3cnc(C(N)=O)c(Nc4ccc5c(c4)CCN(CC4Cc6ccc7c(C8CCC(=O)NC8=O)noc7c6C4)C5)n3)C2)C1=O (stereo partly shown) [Compound 40] | – | > 90 | 9.29 | – |
| CN1CCN([C@@H]2CCCN(c3cnc(C(N)=O)c(Nc4ccc5c(c4)CCN(CC4Cc6ccc7c(C8CCC(=O)NC8=O)noc7c6C4)C5)n3)C2)C1=O (stereo partly shown) [Compound 41] | > 9.51 | – | – | BTK degradation in OCI-LY10 cells Dmax (BTK; OCI-LY10 cells): >90%; pIC50 [1]: 9.47 |
| CN1CCN([C@@H]2CCCN(c3cnc(C(N)=O)c(Nc4ccc5c(c4)CN(CC4Cc6ccc7c(C8CCC(=O)NC8=O)noc7c6C4)C5)n3)C2)C1=O (stereo partly shown) [Compound 44] | – | > 90 | 9.25 | – |
| CN1CCN([C@@H]2CCCN(c3cnc(C(N)=O)c(Nc4ccc5c(c4)CN(C4CN(CC6Cc7ccc8c(C9CCC(=O)NC9=O)noc8c7C6)C4)C5)n3)C2)C1=O (stereo partly shown) [Compound 46] | – | > 90 | 9.18 | – |
| CN1CCN([C@@H]2CCCN(c3cnc(C(N)=O)c(Nc4ccc5c(c4)CN(C4CN(CC6Cc7ccc8c(C9CCC(=O)NC9=O)noc8c7C6)C4)C5)n3)C2)C1=O (stereo partly shown) [Compound 47] | – | – | – | BTK degradation in OCI-LY10 cells Dmax (BTK; OCI-LY10 cells): >90%; pIC50 [1]: 9.21 |
| CN1CCN([C@@H]2CCCN(c3cnc(C(N)=O)c(Nc4ccc5c(c4)CCC4(CCN(CC6Cc7ccc8c(C9CCC(=O)NC9=O)noc8c7C6)CC4)O5)n3)C2)C1=O (stereo partly shown) [Compound 77] | > 9.51 | > 90 | – | pIC50 (TMD8-BTK(C481S) cells; 72 h): 7.64 |
| CN1CCN([C@@H]2CCCN(c3cnc(C(N)=O)c(Nc4ccc(C5CC6CCCC(C5)N6C5Cc6ccc7c(C8CCC(=O)NC8=O)noc7c6C5)cc4)n3)C2)C1=O (stereo partly shown) [Compound 79] | > 9.51 | > 90 | – | pIC50 (TMD8-BTK(C481S) cells; 72 h): 7.92 |
| CN1CCN([C@@H]2CCCN(c3cnc(C(N)=O)c(Nc4ccc(C5CC6CCCC(C5)N6C5Cc6ccc7c(C8CCC(=O)NC8=O)noc7c6C5)cc4)n3)C2)C1=O (stereo partly shown) [Compound 80] | – | – | – | pIC50 (OCI-LY10 cells; 72 h incubation): > 9.51; BTK degradation in OCI-LY10 cells Dmax (BTK; OCI-LY10 cells): >90%; pIC50 (TMD8-BTK(C481S) cells): 7.96 |
| CN1CCN([C@@H]2CCCN(c3cnc(C(N)=O)c(Nc4ccc(C5CC6CCCC(C5)N6CC5Cc6ccc7c(C8CCC(=O)NC8=O)noc7c6C5)cc4)n3)C2)C1=O (stereo partly shown) [Compound 81] | > 9.51 | > 90 | – | pIC50 (TMD8-BTK(C481S) cells; 72 h): 7.96 |
| CN1CCN([C@@H]2CCCN(c3cnc(C(N)=O)c(Nc4ccc(C5CC6CCCC(C5)N6CC5Cc6ccc7c(C8CCC(=O)NC8=O)noc7c6C5)cc4)n3)C2)C1=O (stereo partly shown) [Compound 82] | – | – | – | pIC50 (OCI-LY10 cells; 72 h incubation): > 9.51; BTK degradation in OCI-LY10 cells Dmax (BTK; OCI-LY10 cells): >90%; pIC50 (TMD8-BTK(C481S) cells): 7.96 |
| CN1CCN([C@@H]2CCCN(c3cnc(C(N)=O)c(Nc4ccc(C5CCN(C6Cc7ccc8c(C9CCC(=O)NC9=O)noc8c7C6)CC5)cc4)n3)C2)C1=O (stereo partly shown) [Compound 87] | > 9.51 | > 90 | – | pIC50 (TMD8-BTK(C481S) cells): 7.96 |
| CN1CCN([C@@H]2CCCN(c3cnc(C(N)=O)c(Nc4ccc(C5CCN(CC6Cc7ccc8c(C9CCC(=O)NC9=O)noc8c7C6)CC5)cc4)n3)C2)C1=O (stereo partly shown) [Compound 89] | > 9.51 | > 90 | – | clearance (Mouse pharmacokinetics; iv, 1 mg/kg, Mouse i.v. 1 mpk): 1.72 mL/min/kg; half-life (Mouse pharmacokinetics; iv, 1 mg/kg, Mouse i.v. 1 mpk): 2.8 h; AUC (Mouse pharmacokinetics; iv, 1 mg/kg, Mouse i.v. 1 mpk): 9700 ng·h/mL; half-life (Mouse pharmacokinetics; [3]): 3 h; AUC (Mouse pharmacokinetics; [3]): 23700 ng·h/mL; Cmax (Mouse pharmacokinetics; [3]): 1880 ng/mL; F (Mouse pharmacokinetics; Mouse i.g. 10 mpk): 24.5%; pIC50 (TMD8-BTK(C481S) cells): 7.70 |
| NC(=O)c1ncc(N2CCCCC2)nc1Nc1ccc(C2CCN(C[C@@H]3CCC(n4ccc5c6c(C7CCC(=O)NC7=O)noc6ccc54)C3)CC2)cc1 (stereo partly shown) [Compound 97] | – | > 90 | 9.11 | – |
| CN1CCN([C@@H]2CCCN(c3cnc(C(N)=O)c(Nc4ccc(C5CCN([C@H]6C[C@@H](n7ccc8c9c(C%10CCC(=O)NC%10=O)noc9ccc87)C6)CC5)cc4)n3)C2)C1=O (stereo partly shown) [Compound 100] | > 9.51 | > 90 | – | pIC50 (TMD8-BTK(C481S) cells; 72 h): 9.24 |
